According to patent US20250072422A1, “ARYLCYCLOHEXANEDIONE DERIVATIVE OR SALT THEREOF, PEST CONTROL AGENT CONTAINING SAID COMPOUND, AND METHOD FOR USING SAME” (ADEKA Corporation, priority 2021, published 2025):

Each compound was assayed on Dirofilaria immitis (assay: Influence evaluation test on the growth of Dirofilaria immitis). Conditions: 168 h, read-out: development inhibition rate from the L3 stage larva to the L4-stage larva.
Assay type: cell-based

SMILES	inhibition at 10 µM [%]
C#CCC1C(=O)C(C(=O)Nc2ccc(F)cc2)=C(O)CC1c1ccc(C(F)(F)F)cc1 (stereo not drawn) [1-7, N-(4-fluorophenyl)-5-hydroxy-3-oxo-2-(prop-2-yn-1-yl)-4′-(trifluoromethyl)-1,2,3,6-tetrahydro-[1,1′-biphenyl]-4-carboxamide]	≥ 50

What follows are compounds tested on Plutella xylostella (assay: Insecticidal test against Plutella xylostella). Conditions: 500 ppm drug solution, Chinese cabbage seedlings with eggs immersed about 30 sec, six days after immersion, 25° C.
Source text: Six days after the immersion in the drug solution, the number of surviving insects was examined. […] In triplicate using 10 per plot.

SMILES	corrected mortality, rating of assessment
C#CCC1C(=O)C(C(=O)Nc2ccc(F)cc2)=C(O)CC1c1ccc(C(F)(F)F)cc1 (stereo not drawn) [1-7, N-(4-fluorophenyl)-5-hydroxy-3-oxo-2-(prop-2-yn-1-yl)-4′-(trifluoromethyl)-1,2,3,6-tetrahydro-[1,1′-biphenyl]-4-carboxamide]	D or higher
CC1C(=O)C(C(=O)Nc2ccc(F)cc2)=C(O)CC1(C)c1ccc(C(F)(F)F)cc1 (stereo not drawn) [1-3]	D or higher
CC1(C)C(=O)C(C(=O)Nc2ccc(F)nc2)=C(O)CC1c1ccc(Br)cn1 (stereo not drawn) [1-143]	D or higher
CC1C(=O)C(C(=O)Nc2ccc(F)cc2)=C(O)C2CCc3cc(C(F)(F)F)ccc3C12 (stereo not drawn) [2-4]	D or higher
Cl.O=C(Nc1ccc(F)cc1)C1=C(O)CC(c2ccc(C(F)(F)F)cc2)C2(CCNCC2)C1=O (stereo not drawn) [1-136]	D or higher
CC1(C)C(=O)C(C(=O)Nc2ccc(F)cn2)=C(O)CC1c1ccc(Br)cn1 (stereo not drawn) [1-142]	D or higher
O=C(Nc1ccc([N+](=O)[O-])cc1)C1=C(O)CC(c2ccc(C(F)(F)F)cc2)C2(CCCCC2)C1=O (stereo not drawn) [1-118]	D or higher
O=C(Nc1ccc(Oc2ccccc2)cc1)C1=C(O)CC(c2ccc(C(F)(F)F)cc2)C2(CCCCC2)C1=O (stereo not drawn) [1-38]	D or higher
O=C1C(C(=S)Nc2ccc(F)cc2)=C(O)CC(c2ccc(C(F)(F)F)cc2)C12CCCC2 (stereo not drawn) [1-48]	D or higher
CC1(C)C(=O)C(C(=S)Nc2ccc(OC(F)(F)F)cc2)=C(O)CC1c1ccc(C(F)(F)F)cc1 (stereo not drawn) [1-22]	D or higher
O=C1CC2c3ccc(C(F)(F)F)cc3CCC2C(O)=C1C(=O)Nc1ccc(F)cc1 (stereo not drawn) [2-2]	D or higher
O=C(Nc1ccc(F)cc1)C1=C(O)CC(c2ccc(C(F)(F)F)cc2)C2(CCOCC2)C1=O (stereo not drawn) [1-45]	D or higher
O=C(Nc1ccc(F)cc1)C1=C(O)CC(c2ccc(C(F)(F)F)cc2)C2(CCCC2)C1=O (stereo not drawn) [1-28]	D or higher
O=C(Nc1ccccc1-c1ccccc1)C1=C(O)CC(c2ccc(C(F)(F)F)cc2)C2(CCCCC2)C1=O (stereo not drawn) [1-119]	D or higher
O=C(Nc1ccc(OC(F)(F)F)cc1)C1=C(O)CC(c2ccc(C(F)(F)F)cc2)C2(CCCCC2)C1=O (stereo not drawn) [1-122]	D or higher
O=C1CC2c3cc(C(F)(F)F)ccc3CC2C(O)=C1C(=O)Nc1ccc(F)cc1 (stereo not drawn) [2-1]	D or higher
C#CCC1C(=O)C(C(=S)Nc2ccc(F)cc2)=C(O)CC1c1ccc(C(F)(F)F)cc1 (stereo not drawn) [1-18]	D or higher
CC1C(=O)C(C(=S)Nc2ccc(F)cc2)=C(O)C2CCc3cc(C(F)(F)F)ccc3C12 (stereo not drawn) [2-9]	D or higher
CC1(C)C(=O)C(C(=S)Nc2ccc(F)cc2)=C(O)CC1c1ccc(C(F)(F)F)cc1 (stereo not drawn) [1-20]	D or higher
O=C(Nc1ccc(SC(F)(F)F)cc1)C1=C(O)CC(c2ccc(C(F)(F)F)cc2)C2(CCCCC2)C1=O (stereo not drawn) [1-120]	D or higher

What follows are compounds tested on Frankliniella occidentalis (assay: Insecticidal test against Frankliniella occidentalis). Conditions: 500 ppm drug solution sprayed on hatched larvae on Phaseolus vulgaris leaf pieces, four days after treatment.
Source text: Female adults of Frankliniella occidentalis were inoculated onto Phaseolus vulgaris leaf pieces, and after allowing them to lay eggs for one day, the female adults were removed. […] Four days after the treatment, the number of surviving larvae of this species was examined. […] In duplicate.

SMILES	corrected mortality, rating of assessment
CC1C(=O)C(C(=O)Nc2ccc(C(F)(F)F)cc2)=C(O)CC1c1ccc(C(F)(F)F)cc1 (stereo not drawn) [1-2]	D or higher
CC1(C)C(=O)C(C(=O)Nc2ccc(F)c(F)c2)=C(O)CC1c1ccc(C(F)(F)F)cc1 (stereo not drawn) [1-10]	D or higher

These compounds were tested on Laodelphax striatellus (assay: Insecticidal test against Laodelphax striatellus). Conditions: 500 ppm drug solution, rice seedlings immersed 30 seconds, three-instar insects, eight days after inoculation.

SMILES	corrected mortality, rating of assessment
O=C(Nc1ccc(F)cc1)C1=C(O)CC(c2ccc(C(F)(F)F)cc2)C2(CCCC2)C1=O (stereo not drawn) [1-28]	D or higher
